Source: US9428753B2, “Use of LXR antagonists for treatment of side effects of elevated glucocorticoid levels” (The Governing Council of the University of Toronto, priority 2013, dated 2016)
Each block holds one compound with its values, some of them ahead of it.

Columns and labels:
[1] = system: Pepck; assay: Pepck gene expression in mouse primary hepatocytes; assay type: cell-based; conditions: for GC-induced Pepck expression: Example 6, GC alone (10 μM; Dex 100 nM)
[2] = system: G6Pc; assay: G6Pc gene expression in mouse primary hepatocytes; conditions: LXRα−/− hepatocytes; for G6Pc expression: 100 nM Dex + 10 μM LXR antagonist; for GC-induced G6Pc expression: Example 6, GC alone (10 μM; Dex 100 nM), overnight
Protocol: For the gene expression studies, the isolated hepatocytes were cultured at least 24 hrs prior to treatment with 10 μM Cortisol, 10 μM Triamcinolone acetonide, 10 μM Prednisone, and 100 nM Dex all±10 μM GSK2033 overnight, and then harvested to isolate mRNA.

[3] = target: T1, GR (Homo sapiens, UniProt P04150); assay: GAL4-GR / UAS-luc co-transfection reporter assay in HEK293 cells; assay type: cell-based; set-up: co-transfecting UAS-reporter and GAL4-LBD of the nuclear receptors LXRα, LXRβ and GR; GAL4 (fusion partner); expressed in transfected cells; host or cells: HEK293 cells; mouse primary hepatocytes; conditions: Example 7, 100 nM Dex
T1 sequence (P04150 524-758 limits assumed): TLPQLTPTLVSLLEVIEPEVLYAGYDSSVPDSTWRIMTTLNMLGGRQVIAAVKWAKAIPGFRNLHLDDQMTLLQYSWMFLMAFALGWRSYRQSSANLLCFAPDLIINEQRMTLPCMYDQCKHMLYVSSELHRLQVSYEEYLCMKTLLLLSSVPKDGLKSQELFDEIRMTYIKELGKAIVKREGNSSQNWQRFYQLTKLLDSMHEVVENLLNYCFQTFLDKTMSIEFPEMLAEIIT
Protocol: (§1) RLU=relative luciferase units.
as §1
Further experiments were then carried out to determine the inhibitory potencies for the individual LXR isoforms in HEK 293 cells by co-transfecting UAS-reporter and GAL4-LBD of the nuclear receptors LXRα, LXRβ and GR and then treating with 8 different concentrations of GSK2033. To assess suppression of ligand activated receptors, the transfected cells were co-treated with increasing doses of GSK2033, in addition to T09091317 or Dex (dexamethasone) (at EC80 of LXR isoforms and GR, respectively).
A number of experiments were carried out to determine the relative inhibitory potencies of GSK2033, Amgen 54 and DMHCl for the individual LXR isoforms in HEK 293 cells by co-transfecting UAS-reporter and GAL4-LBD of the nuclear receptors LXRα, LXRβ and GR and then treating with 6 different concentrations of GSK2033, Amgen 54 and DMHCl. To assess suppression of ligand activated receptors, the transfected cells were co-treated with increasing doses of GSK2033, Amgen 54 and DMHCl, in addition to T09091317 or Dex (at EC80 of LXR isoforms and GR, respectively).

[4] = system: tyrosine aminotransferase (TAT); assay: TAT gene expression in mouse primary hepatocytes; assay type: cell-based; conditions: 100 nM Dex
Protocol: T09 treatment was used as a positive control for LXR activity. (D) Glucose output over 24 hrs from LXRα−/− and LXRβ−/− mouse primary hepatocytes following Dex 100 nM±10 μM GSK2033 treatment. (E) Glucose output over 8 hrs from WT hepatocytes following Dex 500 nM±10 μM GSK2033 treatments. […] Legend: V=vehicle, G=GSK2033 (LXR antagonist); D=dexamethasone (GR agonist); and T09=T0901317 (LXR agonist).

[5] = system: mouse primary hepatocytes; assay: Glucose production (glucose output) in mouse primary hepatocytes; assay type: cell-based
Protocol: T09 treatment was used as a positive control for LXR activity. (D) Glucose output over 24 hrs from LXRα−/− and LXRβ−/− mouse primary hepatocytes following Dex 100 nM±10 μM GSK2033 treatment. (E) Glucose output over 8 hrs from WT hepatocytes following Dex 500 nM±10 μM GSK2033 treatments. Data represent the Avg±SD, N=3. *P<0.05 by One way ANOVA, Student Newman Keuls. Legend: V=vehicle, G=GSK2033 (LXR antagonist); D=dexamethasone (GR agonist); and T09=T0901317 (LXR agonist).
While not wishing to be limited by theory, subsequent to conducting these initial studies it was realized that 24 hour incubation of hepatocytes in gluconeogenic media may be too long. In the literature, for this type of assay, primary heptocytes are usually incubated up to 12 hours. As such, for subsequent studies of the present application, WT cells were treated with 500 nM Dex for 8 hours to be able to measure detectable levels of glucose in the media.

[6] = system: LXRα−/− mice; assay: In vivo 5 day Dex ± GSK2033 co-treatment study; set-up: species or system mouse; conditions: Dex group
Protocol: LXRα−/− mice were treated with Vehicle (Veh), Dex (2.5 mg/kg) b.i.d. or GSK2033 40 mg/kg (once a day) along with Dex b.i.d. for 5 days. (A) Plasma glucose levels were measured by a colorimetric kit (Wako). (B) Spleen weights were measured at the time of sacrifice, and are presented normalized to body weight. (C) Liver Pepck, FOXO1, Pgc 1α, FGF21, GR and LXRβ gene expression measured by QPCR. Data represent the Avg±SEM, N=2-5. *P<0.05 by One way ANOVA, Student Newman Keuls.
Having observed promising results with GSK2033 co-treatment with Dex in-vitro (GSK2033-mediated suppression of GC-induced gluconeogenic side effects without affecting desirable immune suppression); a study was conducted, in which whole body LXRα−/− mice were treated with vehicle (Veh), 2.5 mg/kg bid (subcutaneous injection) Dex or Dex+40 mg/kg GSK2033 (once a day intraperitoneal injection) for 5 days, and sacrificed at lights on.

[7] = system: IL-1β; assay: IL-1β gene expression in LPS activated mouse primary macrophages (RT-QPCR); assay type: cell-based; conditions: LPS activated macrophages; 250 nM T09, 18 hrs
Protocol: (§2) The expression of genes involved in immune response IL-1β, IL-6 and GILZ was measured following an overnight treatment with Dex 100 nM, 250 nM T0901317 (T09), and/or 10 μM GSK2033 in LPS activated WT, LXR α −/− and LXRβ −/− mouse primary macrophages, by RT-QPCR. Data represent the Avg±SD, N=3. *P<0.05 by One way ANOVA, Student Newman Keuls.
(§3) To assess the ability of GSK2033 to affect GR-mediated inflammatory suppression, a number of gene expression studies were conducted on primary macrophages isolated from WT, LXRα−/− and LXRβ−/− mice. Cells were pre-treated with 10 ng/ml lipopolysaccharide (LPS) for 6 hrs (to induce a potent inflammatory response) followed by treatment of 100 nM Dex, 10 μM GSK2033 and/or 250 nM T09 for 18 hrs.

[8] = system: IL-6; assay: IL-6 gene expression in LPS activated mouse primary macrophages (RT-QPCR); assay type: cell-based; conditions: LPS activated macrophages; 250 nM T09, 18 hrs
Protocol: as §2, §3

[9] = system: Srebp-1c; assay: Srebp-1c gene expression in mouse primary hepatocytes; assay type: cell-based; conditions: 250 nM T09
[10] = Example 8, LXRα−/− hepatocytes, 100 nM Dex + 10 μM LXR antagonist

Dex induced GR activity [3]: unaffected
SMILES: CS(=O)(=O)c1ccc(C#CC(O)(c2ccc(N(CC3CC3)S(=O)(=O)c3ccccc3)cc2)C(F)(F)F)cc1 (stereo not drawn) [Amgen 54]
Pepck expression [1, 10]: 8.4 fold | G6Pc expression ([2]; Example 8): 6.5 fold

SMILES: C[C@]12CCC(=O)C=C1CC[C@@H]1[C@@H]2[C@@H](O)C[C@@]2(C)[C@H]1CC[C@]2(O)C(=O)CO [Cortisol, cortisol (hydrocortisone)]
GC-induced Pepck expression ([1]; LXRα−/− hepatocytes, overnight): 23.9 fold | GC-induced G6Pc expression [2]: 10.3 fold

SMILES: CC(CCC(=O)N(C)C)[C@H]1CC[C@H]2C3CC=C4CC(Cl)CC[C@]4(C)C3CC[C@]12C (stereo partly drawn) [DMHCl]
Pepck expression [1, 10]: 1.4 fold | G6Pc expression ([2]; Example 8): 3.9 fold | Dex induced GR activity [3]: unaffected

SMILES: C[C@@H]1C[C@H]2[C@@H]3CCC4=CC(=O)C=C[C@]4(C)[C@@]3(F)[C@@H](O)C[C@]2(C)[C@@]1(O)C(=O)CO [Dex, dexamethasone]
Pepck expression ([1]; Example 3, LXRα−/− hepatocytes, 100 nM Dex alone): 15.7 fold | Pepck expression ([1]; Example 3, WT hepatocytes, 100 nM Dex alone, overnight): 8.5 fold | GC-induced Pepck expression ([1]; LXRα−/− hepatocytes, overnight): 23.2 fold | Dex-induced Pepck expression ([1]; Example 8, LXRα−/− hepatocytes, 100 nM Dex alone): 15.8 fold | TAT expression (induction) ([4]; LXRα−/− hepatocytes): 12.7 fold | TAT expression (induction) ([4]; LXRβ−/− hepatocytes): 9.7 fold | TAT expression (induction) ([4]; WT hepatocytes): 20.8 fold | glucose secretion (glucose output) ([5]; LXRα−/− hepatocytes, 100 nM Dex alone, 24 hours): 2.2 fold | glucose secretion (glucose output) ([5]; WT hepatocytes, 500 nM Dex alone, 8 hours): 3 fold | liver FOXO 1 gene expression (induction) [6]: 3.3 fold | liver Pepck gene expression (induction) [6]: 3.7 fold | GC-induced G6Pc expression [2]: 11.2 fold | Dex-mediated G6Pc expression ([2]; Example 8, 100 nM Dex alone): 10.3 fold

SMILES: C[C@]12C=CC(=O)C=C1CC[C@@H]1[C@@H]2C(=O)C[C@@]2(C)[C@H]1CC[C@]2(O)C(=O)CO [Prednisone, prednisone]
GC-induced Pepck expression ([1]; LXRα−/− hepatocytes, overnight): 9.3 fold | GC-induced G6Pc expression [2]: 22.3 fold

SMILES: O=S(=O)(c1ccccc1)N(CC(F)(F)F)c1ccc(C(O)(C(F)(F)F)C(F)(F)F)cc1 [T09]
IL-1β expression, LXR agonist alone [7]: suppression | IL-6 expression, LXR agonist alone [8]: suppression | Srebp-1c expression (induction) ([9]; LXRα−/− hepatocytes): 3.7 fold | Srebp-1c expression (induction) ([9]; LXRβ−/− hepatocytes): 42.0 fold | Srebp-1c expression (induction) ([9]; WT hepatocytes): 37.7 fold

SMILES: CC1(C)O[C@@H]2C[C@H]3[C@@H]4CCC5=CC(=O)C=C[C@]5(C)[C@@]4(F)[C@@H](O)C[C@]3(C)[C@]2(C(=O)CO)O1 [Triamcinolone acetonide, triamcinolone acetonide]
GC-induced Pepck expression ([1]; LXRα−/− hepatocytes, overnight): 6.1 fold | GC-induced G6Pc expression [2]: 27.3 fold
